Among the data in PubChem BioAssay (NCI) are GI50 and TGI values, retold here.

The structures appear in SMILES notation. Where “and” joins values, the source holds several entries; their conditions need not be identical. Equal entries are not always repeated.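 Following 48 hours of exposure in 96-well plates, responses at five concentrations were used to interpolate endpoints linearly. Here, GI50 denotes the concentration required for 50% inhibition of growth. Definition used: TGI = concentration required for complete inhibition of growth.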

Test systems include PC-3 prostate; SR leukemia; MDA-MB-231 breast; MOLT-4 leukemia; SF-539 CNS; M14 melanoma; HCC-2998 colon; IGROV1 ovarian; 786-0 renal; HOP-92 NSCLC.
What all share (assay): growth of human tumour cells (NCI), 48 h

Take `N#CC(C#N)=C/C=C(\Cl)c1ccc(Cl)cc1`: the GI50 is 8620 nM with PC-3 prostate; 3310 nM in the test on SR leukemia; 2540 nM in the test with MDA-MB-231 breast; 696 nM with MOLT-4 leukemia; 4660 nM in the test on SF-539 CNS; 1930 nM with M14 melanoma. For the same compound, the GI50 was 6750 nM in the test on HCC-2998 colon, 7460 nM in the test with IGROV1 ovarian, 4560 nM in the test on 786-0 renal and 3810 nM in the test on HOP-92 NSCLC. Further, the TGI with PC-3 prostate was over 46200 nM; with SR leukemia, 37300 nM; in the test with MDA-MB-231 breast, 14000 nM; with MOLT-4 leukemia it was over 100000 nM; in the test with SF-539 CNS, 15900 nM; in the test on M14 melanoma it was 7380 nM. In addition, the TGI amounted to 19900 nM in the test with HCC-2998 colon, 32000 nM in the test with IGROV1 ovarian, 15700 nM with 786-0 renal and 11400 nM in the test on HOP-92 NSCLC.
In the case of `CC1CC(C)CC(C)C(O)/C(C#N)=C/C=C/CC(C2CCCC2C(=O)O)OC(=O)CC(O)C(C)C1` (stereo not given), the GI50 in the test with PC-3 prostate was 43.4 nM; in the test with SR leukemia, 17.6 nM; in the test on MDA-MB-231 breast, 19.3 nM; in the test on MOLT-4 leukemia it was 26.9 nM; with SF-539 CNS, 5.1 nM; with M14 melanoma it was 26 nM. Besides, the values for the GI50 with HCC-2998 colon, in the test with IGROV1 ovarian and with 786-0 renal were 29.7 nM, 23.1 nM and 21.3 nM, respectively. For the same compound, the TGI in the test on PC-3 prostate is 205 nM and 208 nM; with SR leukemia it was 73.6 nM and 81.3 nM; in the test on MDA-MB-231 breast, 70.6 nM; with MOLT-4 leukemia it was 64.1 nM and 209 nM; in the test on SF-539 CNS, 21.3 nM and 14.6 nM; in the test on M14 melanoma, 97.1 nM and 57.6 nM. Further, the TGI with HCC-2998 colon is 102 nM and 72.6 nM; in the test on IGROV1 ovarian, 128 nM and 41.2 nM; in the test on 786-0 renal, 171 nM and 53.6 nM; with HOP-92 NSCLC it was 51.3 nM and 14.3 nM.
As to `C[C@@]1(O)C2CC3CC1(c1ccccc1)CC(/C3=N/O)/C2=N\O` (stereo not given in full), the TGI in the test with PC-3 prostate, with SR leukemia, in the test with MDA-MB-231 breast, with MOLT-4 leukemia, in the test on SF-539 CNS and in the test on M14 melanoma was over 100000 nM in each case. Also, the TGI in the test with HCC-2998 colon, with IGROV1 ovarian, with 786-0 renal and in the test with HOP-92 NSCLC was over 100000 nM in each case.
On to `COC(=O)C1=C(O)C(C(=O)OC)C2CC(=O)CC1C2(C)C` (stereo not given), for which the TGI with PC-3 prostate, with SR leukemia, with MDA-MB-231 breast, with MOLT-4 leukemia, in the test with SF-539 CNS and in the test with M14 melanoma was over 100000 nM in each case. In addition, the TGI in the test on HCC-2998 colon, in the test on IGROV1 ovarian, in the test with 786-0 renal and in the test with HOP-92 NSCLC was over 100000 nM throughout.
In the case of `Cc1ccc2cnc(N)c(C#Cc3cc(C(=O)Nc4ccc(CN5CCN(C)CC5)c(C(F)(F)F)c4)cnc3C)c2c1`, the GI50 in the test on PC-3 prostate is 734 nM; with SR leukemia it was 390 nM; with MDA-MB-231 breast it was 290 nM; with SF-539 CNS it was 664 nM; with M14 melanoma, 334 nM; in the test on HCC-2998 colon, 1590 nM. Besides, the results for the GI50 in the test with IGROV1 ovarian, in the test with 786-0 renal and in the test with HOP-92 NSCLC were 128 nM, 809 nM and 217 nM, respectively. The TGI was 1560 nM in the test on PC-3 prostate; 1610 nM with SR leukemia; 1060 nM in the test with MDA-MB-231 breast; 1320 nM in the test on SF-539 CNS; 1160 nM in the test with M14 melanoma; 8460 nM in the test with HCC-2998 colon. Besides, the results for the TGI in the test on IGROV1 ovarian, with 786-0 renal and with HOP-92 NSCLC were 712 nM, 1680 nM and 1640 nM, respectively.
Turning to `CCOc1ccccc1CCN=C1NC(=O)/C(=C/c2ccc3ncccc3c2)S1`, the GI50 is 562 nM in the test on PC-3 prostate; 146 nM with SR leukemia; 4240 nM in the test on MDA-MB-231 breast; 4020 nM with MOLT-4 leukemia; 751 nM with SF-539 CNS; 2170 nM in the test on M14 melanoma. Moreover, the GI50 in the test on HCC-2998 colon is 3050 nM; in the test with IGROV1 ovarian it was 1470 nM; with 786-0 renal, 1930 nM; with HOP-92 NSCLC, 3280 nM. For the same compound, the TGI in the test on PC-3 prostate was 3990 nM; in the test with SR leukemia, 3040 nM; in the test with MDA-MB-231 breast, 18600 nM; with MOLT-4 leukemia it was over 25000 nM; with SF-539 CNS it was 2950 nM; with M14 melanoma, 10400 nM. The TGI with HCC-2998 colon is 11800 nM; in the test with IGROV1 ovarian, 15000 nM; in the test on 786-0 renal, over 14300 nM; in the test with HOP-92 NSCLC, 14600 nM.
Regarding `COc1ccc(-c2noc(C(=O)O)c2-c2cc(OC)c(OC)c(OC)c2)cc1`, the GI50 in the test with PC-3 prostate was 1330 nM; in the test on SR leukemia, 402 nM; in the test on MDA-MB-231 breast, 7660 nM; with MOLT-4 leukemia it was 4910 nM; in the test on SF-539 CNS it was 2450 nM; in the test on HCC-2998 colon it was 5750 nM. The GI50 was 4910 nM with IGROV1 ovarian, 4850 nM in the test on 786-0 renal and 3540 nM in the test with HOP-92 NSCLC. The TGI in the test on PC-3 prostate is over 100000 nM; with SR leukemia, over 100000 nM; in the test on MDA-MB-231 breast, over 100000 nM; in the test with MOLT-4 leukemia it was over 100000 nM; with SF-539 CNS, 20500 nM; with HCC-2998 colon it was over 100000 nM. Further, the TGI in the test with IGROV1 ovarian, in the test on 786-0 renal and with HOP-92 NSCLC was over 100000 nM each time.
